According to patent US11548880B2, “Modulators of hemoglobin” (Global Blood Therapeutics, Inc., priority 2018, dated 2023):

How the values were obtained:
[1] = Rat PK, oral gavage; format: in vivo, Sprague-Dawley rats; conditions: oral gavage 10 mg/kg; for blood plasma ratio / half-life: male, Sprague-Dawley, rat, po, 10 mg/kg; for blood plasma ratio: whole blood and plasma; for half-life: whole blood
Procedure: Rat PK: A group of fasted male Sprague-Dawley rats were dosed via oral gavage at 10 mg/kg with test articles formulated in 0.5% methylcellulose suspension. Blood samples were collected through jugular vein at pre-selected time points. Blood samples were prepared by protein precipitation with ACN, vortexed and then centrifuged before supernatants were transferred for bioanalysis. Test article concentrations were measured by HPLC-MS-MS. Pharmacokinetic parameters were calculated using non-compartment analysis. The blood/plasma ratio was calculated by dividing the AUClast (i.e., the area under the curve calculated from t=0 to the last detectable time-point) in blood by the AUClast in plasma. The T1/2 was calculated via a linear regression of the terminal phase of the blood-time concentration profile.

[2] = biological target: T1, Hb (Homo sapiens, UniProt P68871+P69905); assay: Whole blood assay: oxygen equilibrium curves (Hemox Analyzer), change in p50; format: cell-based; conditions: whole blood incubated 1 h at 37° C., equimolar ratio of hemoglobin to compound
T1 construct: from tissue; host or cells: whole blood
Procedure: Whole blood assay: Oxygen equilibrium curves (OECs) were collected using a TCS Hemox Analyzer (TCS Scientific Company, New Hope, Pa., USA) to measure changes in the binding affinity of O2 to Hb. Whole blood was incubated for 1 h at 37° C. with the indicated compounds in an equimolar ratio of hemoglobin to compound and diluted into TES (2-[[1,3-dihydroxy-2-(hydroxymethyl)propan-2-yl]amino]ethanesulfonic acid)/saline buffer prior to measurements. For example, for whole blood at 20% hematocrit [Hct], which corresponds to 1 mM Hb, a compound concentration of 1 mM was used (for example, for compounds 1-5), and the incubated sample diluted 50- to 100-fold. The concentration for compounds 6-44 (Diastereomers 1 and 2) varied but remained in equimolar ratio to hemoglobin. The diluted samples were then oxygenated with compressed air within the Hemox Analyzer and the OECs were collected during deoxygenation as previously described (Guarnone et al., Haematologica, 1995, 80, 426-430). p 50 (partial pressure of O2 at which Hb is 50% saturated with O2) values were obtained using a non-linear regression analysis. Percentage change in p50 [Δp50(%)] was calculated as follows: Δp50(%)=[(p50 of control)−p50 with compound)/p50 control]×100.

[3] = AUClast in blood divided by AUClast in plasma, rats
[4] = fasted male Sprague-Dawley rats, 0.5% methylcellulose suspension, blood

T1 sequence (P69905 2-142 limits assumed): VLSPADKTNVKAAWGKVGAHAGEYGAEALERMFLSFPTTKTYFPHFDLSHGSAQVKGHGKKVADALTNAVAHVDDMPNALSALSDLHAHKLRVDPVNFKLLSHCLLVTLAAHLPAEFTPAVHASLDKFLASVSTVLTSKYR
T1 sequence (P68871 2-147 limits assumed): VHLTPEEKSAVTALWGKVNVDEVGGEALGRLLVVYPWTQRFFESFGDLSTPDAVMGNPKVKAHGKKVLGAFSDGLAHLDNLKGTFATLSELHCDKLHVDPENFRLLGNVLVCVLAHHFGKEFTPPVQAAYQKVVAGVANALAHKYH

O=Cc1c(O)cccc1OC[C@@H]1CSCCN1C(=O)c1ccccc1C(O)CO (single isomer, unassigned) [35 (Diastereomer 2)]
Blood/Plasma ratio [1, 3]: 636
T1/2 [1, 4]: 89 h
Delta-p50 (%) [2]: 83.1%

O=Cc1c(O)cccc1OC[C@@H]1CSCCN1C(=O)c1ccccc1C(O)CO (single isomer, unassigned) [35 (Diastereomer 1)]
blood plasma ratio [1, 3]: 493
half-life [1, 4]: 102 h
Delta-p50 (%) [2]: 81.35%

CC(C)(O)Cc1ncccc1C(=O)N1CCOC[C@H]1COc1cccc(O)c1C=O [Compound 39, 2-hydroxy-6-{[(3S)-4-[2-(2-hydroxy-2-methylpropyl)pyridine-3-carbonyl]morpholin-3-yl]methoxy}benzaldehyde]
blood plasma ratio [1, 3]: 52
half-life [1, 4]: 52 h
Delta-p50 (%) [2]: 77.98%

O=Cc1c(O)cccc1OC[C@@H]1CCCCN1C(=O)c1cccnc1CO [Compound 11, (S)-2-hydroxy-6-((1-(2-(hydroxymethyl)nicotinoyl)piperidin-2-yl)methoxy)benzaldehyde]
blood plasma ratio [1, 3]: 126
half-life [1, 4]: 55 h
Delta-p50 (%) [2]: 79.3%

O=Cc1c(O)cccc1OC[C@@H]1COCCN1C(=O)c1ccccc1CO [Compound 23, 2-hydroxy-6-{[(3S)-4-[2-(hydroxymethyl)benzoyl]morpholin-3-yl]methoxy}benzaldehyde]
blood plasma ratio [1, 3]: 59
half-life [1, 4]: 62 h
Delta-p50 (%) [2]: 70.92%

O=Cc1c(O)cccc1OCC1CSCCN1C(=O)c1cccnc1CCO (single isomer, unassigned) [10 (Enantiomer 2)]
blood plasma ratio [1, 3]: 212
half-life [1, 4]: 112 h
Delta-p50 (%) [2]: 87.3%

O=Cc1c(O)cccc1OC[C@@H]1CCCCN1C(=O)c1cccnc1C(O)CO (stereo partly drawn) [Compound 36, 2-{[(2S)-1-[2-(1,2-dihydroxyethyl)pyridine-3-carbonyl]piperidin-2-yl]methoxy}-6-hydroxybenzaldehyde]
blood plasma ratio [1, 3]: 115
half-life [1, 4]: 56 h
Delta-p50 (%) [2]: 77.04%

COCCc1ncccc1C(=O)N1CCOC[C@H]1COc1cccc(O)c1C=O [Compound 20, 2-hydroxy-6-{[(3S)-4-[2-(2-methoxyethyl)pyridine-3-carbonyl]morpholin-3-yl]methoxy}benzaldehyde]
blood plasma ratio [1, 3]: 45
half-life [1, 4]: 65 h
Delta-p50 (%) [2]: 78.32%

O=Cc1c(O)cccc1OCC1CSCCN1C(=O)c1ccccc1CO (single isomer, unassigned) [40 (Enantiomer 2)]
blood plasma ratio [1, 3]: 424
half-life [1, 4]: 117 h
Delta-p50 (%) [2]: 83.36%

O=Cc1c(O)cccc1OC[C@@H]1CCCN1C(=O)c1nccnc1CCO [Compound 19, (S)-2-hydroxy-6-((1-(3-(2-hydroxyethyl)pyrazine-2-carbonyl)pyrrolidin-2-yl)methoxy)benzaldehyde]
Delta-p50 (%) [2]: 54.67%

CC(O)Cc1ncccc1C(=O)N1CCOC[C@H]1COc1cccc(O)c1C=O (single isomer, unassigned) [42 (Diastereomer 2)]
Delta-p50 (%) [2]: 75.05%

N#CCCc1ccccc1C(=O)N1CCCC[C@H]1COc1cccc(O)c1C=O [Compound 15, (S)-3-(2-(2-((2-formyl-3-hydroxyphenoxy)methyl)piperidine-1-carbonyl)phenyl)propanenitrile]
Delta-p50 (%) [2]: 80.5%

O=Cc1c(O)cccc1OC[C@@H]1CCCCN1C(=O)c1ccccc1C(O)CO (single isomer, unassigned) [34 (Diastereomer 2)]
Delta-p50 (%) [2]: 81.59%
